According to patent EP2264010A1, “Hetarylamidines” (Bayer CropScience AG, priority 2009, dated 2010):

Columns and labels:
[1] = logP by HPLC on reversed-phase columns (C 18), EEC Directive 79/831 Annex V.A8; type: physicochemical; conditions: c18 reversed-phase hplc, reversed-phase (C 18), read-out: log p
From the text: Die Messung der logP Werte erfolgte gemäß EEC Directive 79/831 Annex V.A8 durch HPLC (High Performance Liquid Chromatography) an reversed-phase Säulen (C 18), mit der nachfolgenden Methode: […]

Tetranychus urticae = test: Tetranychus test, OP-resistant (TETRUR spray treatment); type: in vivo; conditions: topical, bean leaf discs (Phaseolus vulgaris), read-out: Wirkung
From the text: Zur Herstellung einer zweckmäßigen Wirkstoffzubereitung vermischt man 1 Gewichtsteil Wirkstoff mit den angegebenen Mengen Lösungsmittel und Emulgator und verdünnt das Konzentrat mit emulgatorhaltigem Wasser auf die gewünschte Konzentration.
Bohnenblattscheiben (Phaseolus vulgaris), die von allen Stadien der Gemeinen Spinnmilbe (Tetranychus urticae) befallen sind, werden mit einer Wirkstoffzubereitung der gewünschten Konzentration gespritzt.
Nach der gewünschten Zeit wird die Wirkung in % bestimmt. Dabei bedeutet 100 %, dass alle Spinnmilben abgetötet wurden; 0 % bedeutet, dass keine Spinnmilben abgetötet wurden.

LOLMU = test: Herbicidal activity, test type PE; type: in vivo; conditions: TEST-TYP PE, read-out: herbizide Wirkung LOLMU
VERPE [2] = test: Herbicidal activity, test type PE; type: in vivo; conditions: TEST-TYP PE, read-out: herbizide Wirkung VERPE
CYPES = test: Herbicidal activity, test type PE; type: in vivo; conditions: TEST-TYP PE, 320 G/HA
SETVI = test: Herbicidal activity, test type PE; type: in vivo; conditions: TEST-TYP PE, read-out: herbizide Wirkung SETVI
VIOTR [3] = test: Herbicidal activity, test type PE; type: in vivo; conditions: TEST-TYP PE, read-out: herbizide Wirkung VIOTR
AMARE [4] = test: Herbicidal activity, test type PE; type: in vivo; conditions: Amaranthus retroflexus, TEST-TYP PE, read-out: herbizide Wirkung AMARE
VERPE [5] = test: Herbicidal activity, test type PO; type: in vivo; conditions: TEST-TYP PO, 80 G/HA
VIOTR [6] = test: Herbicidal activity, test type PO; type: in vivo; conditions: TEST-TYP PO, 80 G/HA
STEME = test: Herbicidal activity, test type PE; type: in vivo; conditions: TEST-TYP PE, read-out: herbizide Wirkung STEME
MATIN = test: Herbicidal activity, test type PE; type: in vivo; conditions: TEST-TYP PE, read-out: herbizide Wirkung MATIN
AMARE [7] = test: Herbicidal activity, test type PO; type: in vivo; conditions: TEST-TYP PO, 80 G/HA
ALOMY = test: Herbicidal activity, test type PE; type: in vivo; conditions: TEST-TYP PE, 320 G/HA

SMILES | chromatographic logP [1] | mortality at 500 g/ha, 500 g/ha (Tetranychus urticae) [%] | pest or weed control at 320 g/ha (LOLMU) [%] | pest or weed control at 320 g/ha (VERPE [2]) [%] | herbizide Wirkung CYPES (CYPES) | pest or weed control at 320 g/ha (SETVI) [%] | pest or weed control at 320 g/ha (VIOTR [3]) [%] | pest or weed control at 320 g/ha (AMARE [4]) [%] | herbizide Wirkung VERPE (VERPE [5]) | herbizide Wirkung VIOTR (VIOTR [6]) | pest or weed control at 320 g/ha (STEME) [%] | pest or weed control at 320 g/ha (MATIN) [%] | herbizide Wirkung AMARE (AMARE [7]) | herbizide Wirkung ALOMY (ALOMY)
CCN(C)C=Nc1ncc(Cl)cc1-c1ccc(C(F)(F)F)c(Cl)c1 [compound 24] | 2.88 | > 80 | – | – | – | – | – | – | – | – | – | – | – | –
CCN(C=Nc1ncc(Cl)cc1-c1cccc(C(F)(F)F)c1)CC [compound 36] | – | – | 80 | 90 | 100 | 90 | 100 | – | – | – | – | – | – | –
FC(F)(F)c1cccc(-c2cc(Cl)cnc2N=CN2CCCC2)c1 [compound 38] | – | – | – | – | 100 | 90 | – | 80 | – | – | – | – | – | –
CCN(C)C=Nc1ncc(Cl)cc1-c1cccc(C(F)(F)F)c1 [compound 33] | – | > 80 | – | 100 | – | 80 | 100 | 100 | 80 | 90 | 80 | 80 | 80 | 80
